Measurements: ChEMBL document CHEMBL5149973, “Agaricus bisporus-Derived Glucosamine Hydrochloride Facilitates Skeletal Injury Repair through Bmp Signaling in Zebrafish Osteoporosis Model” (J Nat Prod, 2021)
The source made the active and inactive calls. The calls are words filed in the database; no cut-off is given here.

Key:
Osteoblast [1] = assay: Induction of osteoblast differentiation in transgenic osx mCherry Zebrafish embryo assessed as increase in Col10a1a mRNA expression in fin at 0.1 % measured after 15 days by semiquantitative PCR analysis; format: functional; details: Danio rerio, time 15.0 day
Danio rerio [2] = species: Danio rerio; assay: Anti-osteoporosis activity in FAC-induced skeletal injury Zebrafish assessed as increase in cumulative bone optical density in spine at 0.1 % measured for 10 day post fertilization; format: functional, organism-based
Osteoblast [3] = assay: Induction of osteoblast differentiation in transgenic osx mCherry Zebrafish embryo assessed as increase in Sox9a mRNA expression in fin at 0.1 % measured after 15 days by semiquantitative PCR analysis; format: functional, tissue-based; details: Danio rerio, time 15.0 day
Osteoblast [4] = assay: Induction of osteoblast differentiation in transgenic osx mCherry Zebrafish embryo assessed as increase in Sox9b mRNA expression in fin at 0.1 % measured after 15 days by semiquantitative PCR analysis; format: functional, tissue-based; details: Danio rerio, time 15.0 day
Osteoblast [5] = assay: Induction of osteoblast differentiation in transgenic osx mCherry Zebrafish embryo assessed as increase in Col1a2 mRNA expression in fin at 0.1 % measured after 15 days by semiquantitative PCR analysis; format: functional, tissue-based; details: Danio rerio, time 15.0 day
Danio rerio [6] = species: Danio rerio; assay: Anti-osteoporosis activity in FAC-induced skeletal injury Zebrafish assessed as increase in cumulative bone optical density in caudal fins at 0.1 % measured for 10 day post fertilization; format: functional, organism-based
Danio rerio [7] = species: Danio rerio; assay: Suppression of Bmp signaling in Zebrafish tBr injected mRNA embryos assessed as reduction in slight loss of tail tissue at 2.5 uM measured at 26 hrs post fertilization; format: functional, Embryo; design: scale not given: the % may be the effect or the level left
Danio rerio [8] = species: Danio rerio; assay: Suppression of Bmp signaling in Zebrafish tBr injected mRNA embryos assessed as reduction in indistinctive tail tissue at 2.5 uM measured at 26 hrs post fertilization; format: functional, Embryo; design: scale not given: the % may be the effect or the level left

## NCCCC(O)(P(=O)(O)O)P(=O)(O)O
Osteoblast [1]
  Activity: Active
Danio rerio [2]
  Activity: Active
Osteoblast [3]
  Activity: Active
Osteoblast [4]
  Activity: Active
Osteoblast [5]
  Activity: Active
Danio rerio [6]
  Activity: Active

## c1cc(-c2cnn3cc(-c4ccc(OCCN5CCCCC5)cc4)cnc23)ccn1 [DORSOMORPHIN]
Danio rerio [7]
  Activity: 80%
Danio rerio [8]
  Activity: 80%
